Data set [1] relates to hTERT/E6/E7 cells. The data set is described as follows: MTT cell viability assay, non-cancerous hTERT/E6/E7 cells, TMZ with or without plasma discharge tube electro-magnetic field. In kind it is cell-based. As to conditions: after a single 7-minute treatment with discharge tube, E6/E7 non-tumor cell line. The method, then:
(§1) In one experiment conducted using the test system 10 in FIGS. 1A-1B, human glioblastoma cancer cell lines U87 and A172 as well as […] E6/E7 were provided from the ATCC (City of Manassas, VA), and were grown in Dulbecco's Modified Eagle Medium (Gibco) supplemented with 10% fetal bovine serum (Atlanta Biologicals) and 1% penicillin-streptomycin solution (Invitrogen) under standard cell culture conditions (humidified atmosphere with 5% CO2 at 37° C.). After one passage, 10,000 cells in 100 μL medium were seeded into 96-well plates such as the plate 134 in FIG. 1A. The cells were cultured for 24 hours before the experiment was performed to ensure proper cell attachment and stability.
Cell viability was analyzed by using an MTT assay available from Sigma-Aldrich, which is a colorimetric assay for analyzing the cell metabolic activity. The MTT protocol is based on NAD(P)H-dependent cellular oxidoreductases, which reduces the water-soluble MTT ((3-(4,5-dimethylthiazol-2-yl)-2,5-diphenyltetrazolium bromide) to an insoluble formazan product. Cells with active metabolism can transform MTT into formazan; however, dead cells cannot transform MTT into formazan and will not show detectable signal. The measured absorbance at OD 590 nm is proportional to the number of viable cells. […]

Data set [2] concerns U87 glioblastoma cells. The data set is described as follows: MTT cell viability assay, U87 glioblastoma cells, TMZ with or without plasma discharge tube electro-magnetic field. The conditions noted are these: for inhibition of the growth of U87 cells: then 180 μM TMZ. In kind it is cell-based, human. The method, then: as §1
(§2) Cell viability was analyzed by using an MTT assay available from Sigma-Aldrich, which is a colorimetric assay for analyzing the cell metabolic activity. The MTT protocol is based on NAD(P)H-dependent cellular oxidoreductases, which reduces the water-soluble MTT ((3-(4,5-dimethylthiazol-2-yl)-2,5-diphenyltetrazolium bromide) to an insoluble formazan product. Cells with active metabolism can transform MTT into formazan; however, dead cells cannot transform MTT into formazan and will not show detectable signal. The measured absorbance at OD 590 nm is proportional to the number of viable cells.
(§3) Following treatment with an electro-magnetic field generated from the example plasma tube, the cells were cultured for 72 hours. A total of 100 μL MTT solution (7 mg Thiazolyl Blue Tetrazolium Blue in 10 ml DMEM) was added to each well. Cells were cultured for an additional 3 hours at 37° C., and then the MTT solution was aspirated and a 100 μL solvent was added to dissolve the formazan crystals. The result was recorded with a Synergy H1 Hybrid Multi-Mode Microplate Reader at 570 nm. For each condition (treatment time, voltage, drug concentration), the experiments were performed in triplicates and were repeated independently 3 times.
In this example, four different experimental cell groups were used. The first experimental group was the control group. For each well of the plates for the control group, the cell culture media was removed before the treatment applied to the other experimental groups. After the treatment was applied to the other experimental groups, 100 μL, fresh cell culture media for each well was added to the cells of the control group.
The second experimental group is the tube-only group. For the tube-only group, the cell culture media was removed before the treatment as well. After that, the cells were treated by placing the plate 134 on the side of the discharge tube 100 in FIG. 1A, with a distance of 1 and 5 mm between the plate 134 and the tube 100. The cells in the plate were exposed to the electro-magnetic field for 1, 4 and 7 minutes. 100 μL fresh cell culture media for each well was added to the cells after the treatment.
The third experiment group is the drug-only group. For the drug-only group, the cell culture media was removed before the treatment via electro-magnetic field applied to the other experimental groups. After the treatment of the other groups, 100 μL fresh cell culture media with 180, 250, 320 μM of TMZ for each well was added to the cells.
The last experimental group is a combination group. For the combination group, the cell culture media was removed before the treatment as well. Then, the cells were treated by placing the plate 134 on the side of the discharge tube 100 at a distance of 1 and 5 mm. The electro-magnetic field was applied for 1, 4 and 7 minutes. Following the treatment, 100 μL, fresh cell culture media with 180, 250, and 320 μM of TMZ for each well was added to the cells.
(In general: Tetrazolium assays rely on reduction of a dye to a coloured formazan, in cell work by metabolically active cells.)

The test system of data set [3] is A172 glioblastoma cells. The data set is described as follows: MTT cell viability assay, A172 glioblastoma cells, TMZ with or without plasma discharge tube electro-magnetic field. In kind it is cell-based, human. The method, then: as §1, §2, §3
In this example, four different experimental cell groups were used. The first experimental group was the control group. […]

From patent US12458809B2, “Method and system of using plasma discharge tube for sensitization of cancer cells” (The George Washington University, priority 2019, dated 2025) come the findings set out here.

Turning to `Cn1nnc2c(C(N)=O)ncn2c1=O` [TMZ, Temozolomide], in data set [1], the “increase of anti-cancer efficacy of TMZ” value is “no significant effect”. Moreover, in data set [2] (1, 4 or 7 minute electro-magnetic field exposure at 1 mm, then 320 μM TMZ), the “inhibition of the growth of U87 cells (killing effect)” value is reported as about 80%. Besides, the “inhibition of the growth of U87 cells” value in data set [2] (1 minute electro-magnetic field exposure) is recorded as 24%; in data set [2] (4 minute electro-magnetic field exposure), 38%; in data set [2] (7 minute electro-magnetic field exposure), 72%. In data set [2] (7 minutes electro-magnetic field exposure prior to TMZ treatment (FIG. 7)), the “increase in U87 cell death compared with non-cancerous cells” value is reported as 43%. Also, the inhibition at 180 µM in data set [2] (Homo sapiens, U-87 MG, 72 h, 180 μM TMZ only, no electro-magnetic field, 72 h, read-out: growth inhibition / cell death of U87 cells) is 21%. Also, the “higher cell death in U87 cells compared to E6/E7 cells” value in data set [2] (TMZ-only treatment (FIG. 7)) is given as 12%. In addition, the “increase of anti-cancer efficacy of TMZ (factor)” value in data set [2] (after a single 7-minute treatment with discharge tube, U87) was over 2; in data set [3] (after a single 7-minute treatment with discharge tube, A172), over 2. Besides, the “killing effect on U87 cells” value in data set [2] (electro-magnetic field exposure at 5 mm (so in the source); FIG. 4E) plus TMZ) came to 60%. Also, the “reduction of cell viability of A172 cells” value in data set [3] (7 minutes electro-magnetic field exposure at 1 mm, then 250 μM TMZ) is listed as 76%. Besides, in data set [3] (Homo sapiens, A 172, 250 μM TMZ, read-out: cell growth inhibition of A172 cells), the inhibition at 250 µM was 23%.
